The values that follow come from ChEMBL document CHEMBL3593184, “Synthesis of (2-amino)ethyl derivatives of quercetin 3-O-methyl ether and their antioxidant and neuroprotective effects” (Bioorg Med Chem, 2015).

Series [1] can be described thus: Antioxidant activity assessed as superoxide anion radical scavenging activity after 20 mins by xanthine/xanthine oxidase method. The format is physicochemical.
The next series deals with Liver microsome. In words: Antioxidant activity in rat liver microsomes assessed as reduction in iron-ascorbic acid-induced lipid […] activity after 30 mins by TBARS assay. The settings on record: 0.5 h. Format: functional. On the technique in general: Liver microsomes are vesicles of endoplasmic reticulum, rich in cytochrome P450 enzymes.
Series [2] can be described thus: Antioxidant activity assessed as DPPH radical scavenging activity after 30 min. The format is physicochemical. The settings on record: DPPH radical solution. In general terms: The DPPH test is a chemical assay of radical scavenging.
Series [3] has as its system Rattus norvegicus. In words: Neuroprotective activity against middle cerebral artery occlusion-induced focal cerebral ischemia in Sprague-Dawley rat assessed as reduction in edema at 10 mg/kg, iv administered 30 mins after MCA occlusion measured after 2 hrs of reperfusion by TTC staining (reference value: 13 +/- 0.7 %). Format: functional. Also noted: scale not given: the % may be the effect or the level left.

For series [4], the system named is Rattus norvegicus. Briefly: Neuroprotective activity against middle cerebral artery occlusion-induced focal cerebral ischemia in Sprague-Dawley rat assessed as reduction in absolute infarct volume in striatum at 10 mg/kg, iv administered 30 mins after MCA occlusion measured after 2 hrs of reperfusion by TTC staining (reference value: 41.9 +/- 29 mm'3). The format is functional.

Series [5] concerns Rattus norvegicus. In words: Neuroprotective activity against middle cerebral artery occlusion-induced focal cerebral ischemia in Sprague-Dawley rat assessed as reduction in corrected total infarct volume at 10 mg/kg, iv administered 30 mins after MCA occlusion measured after 2 hrs of reperfusion by TTC staining (reference value: 163.2 +/- 9.4 mm'3). Format: functional.
Series [6] concerns Rattus norvegicus. Briefly: Neuroprotective activity against middle cerebral artery occlusion-induced focal cerebral ischemia in Sprague-Dawley rat assessed as reduction in absolute infarct volume in cortex at 10 mg/kg, iv administered 30 mins after MCA occlusion measured after 2 hrs of reperfusion by TTC staining (reference value: 195.6 +/- 11.5 mm'3). The format is functional.

Series [7] can be described thus: Aqueous solubility of the compound at room temperature by HPLC. The format is physicochemical. The settings on record: water.
The test system of series [8] is Rattus norvegicus. In words: Neuroprotective activity against middle cerebral artery occlusion-induced focal cerebral ischemia in Sprague-Dawley rat assessed as reduction in absolute infarct total volume at 10 mg/kg, iv administered 30 mins after MCA occlusion measured after 2 hrs of reperfusion by TTC staining (reference value: 237.4 +/- 13.1 mm'3). The format is functional.

The term IC50 denotes the concentration that inhibits the measured activity by half. For the compound `COc1c(-c2ccc(O)c(O)c2)oc2cc(O)cc(OCCN3CCCCC3)c2c1=O`, the figures for the IC50 (in series [1]; in the series with Liver microsome; in series [2]) were 5.8 µM, 25.1 µM and > 100 µM, respectively.

As to `O=C1O[C@H]([C@@H](O)CO)C(O)=C1O` [ASCORBIC ACID], the IC50 in series [1] is > 50 µM; in [2], 41 µM.

For the compound `CCN(CC)CCOc1cc(O)cc2oc(-c3ccc(O)c(O)c3)c(OC)c(=O)c12`, the values for the IC50 (in [1]; with Liver microsome; in [2]) were 6.53 µM, 23.3 µM and > 100 µM, respectively.

Take `COc1c(-c2cc(O)c(O)c(O)c2)oc2cc(OCCN3CCCC3)cc(O)c2c1=O`: the IC50 is > 100 µM in series [1], 10.1 µM in the series with Liver microsome and 16.8 µM in series [2].

The solubility is how much of the substance goes into solution per volume. For `CCN(CC)CCOc1cc(O)c2c(=O)c(OC)c(-c3cc(O)c(O)c(O)c3)oc2c1.Cl`, the IC50 in series [1] was > 100 µM; in the series with Liver microsome, 11.5 µM; in series [2], 22.9 µM. Further, the Activity with Rattus norvegicus [3] was 9.4%; in the series on Rattus norvegicus [4], 39.3 mm3; in the series on Rattus norvegicus [5] it was 108.9 mm3; in the series on Rattus norvegicus [6] it was 123.4 mm3; in the series with Rattus norvegicus [8], 164 mm3. Further, the solubility in series [7] is > 50 mM.

`COc1c(-c2ccc(O)c(O)c2)oc2cc(OCCN3CCOCC3)cc(O)c2c1=O`: the IC50 in [1] was 7.41 µM; in the series on Liver microsome it was 16.2 µM; in series [2], 47.2 µM.

As for `COc1c(-c2cc(O)c(O)c(O)c2)oc2cc(O)cc(OCCN3CCCCC3)c2c1=O`, the IC50 in series [1] is > 100 µM; with Liver microsome, 11.9 µM; in series [2] it was 32.4 µM.

For `COc1c(-c2ccc(O)c(O)c2)oc2cc(O)cc(O)c2c1=O` [3-O-METHYLQUERCETIN], the IC50 in series [1] amounted to 17.4 µM; in the series with Liver microsome, 19 µM; in series [2], 14.2 µM. The Activity in the series on Rattus norvegicus [3] is on record as 5.5%; in the series with Rattus norvegicus [4], 27.2 mm3; in the series with Rattus norvegicus [5], 78.8 mm3; in the series on Rattus norvegicus [6], 79.9 mm3; in the series on Rattus norvegicus [8], 108.8 mm3. Also, in series [7], the solubility is > 50 mM.

As to `COc1c(-c2ccc(O)c(O)c2)oc2cc(O)cc(OCCN3CCCC3)c2c1=O`, the IC50 was determined as 4.58 µM in series [1], 23.3 µM in the series on Liver microsome and 84 µM in series [2].

As for `COc1c(-c2cc(O)c(O)c(O)c2)oc2cc(OCCN3CCCCC3)cc(O)c2c1=O`, the IC50 in series [1] is > 100 µM; in the series on Liver microsome, 10.5 µM; in series [2], 26.3 µM.

As for `CCN(CC)CCOc1cc(O)cc2oc(-c3cc(O)c(O)c(O)c3)c(OC)c(=O)c12`, the IC50 is > 100 µM in series [1], 11.2 µM in the series on Liver microsome and 22.1 µM in series [2].

On to `COc1c(-c2cc(O)c(O)c(O)c2)oc2cc(O)cc(OCCN3CCCC3)c2c1=O`, for which the IC50 is > 100 µM in series [1], 10.9 µM in the series with Liver microsome and 27 µM in [2].

Take `COc1c(-c2ccc(O)c(O)c2)oc2cc(O)cc(OCCN3CCOCC3)c2c1=O`: the IC50 in series [1] is 11.2 µM; in the series on Liver microsome, 37.4 µM; in series [2], > 100 µM.

As for `COc1c(-c2cc(O)c(O)c(O)c2)oc2cc(OCCN3CCOCC3)cc(O)c2c1=O`, the IC50 in series [1] was > 100 µM; in the series on Liver microsome, 10.2 µM; in series [2], 26 µM.

Regarding `COc1c(-c2ccc(O)c(O)c2)oc2cc(OCCN3CCCC3)cc(O)c2c1=O`, the IC50 in [1] was 11.4 µM; in the series with Liver microsome it was 21.8 µM; in series [2] it was 18.9 µM.

For `CCN(CC)CCOc1cc(O)c2c(=O)c(OC)c(-c3ccc(O)c(O)c3)oc2c1`, the IC50 in series [1] worked out at 8.14 µM; in the series with Liver microsome, 15.8 µM; in series [2], 27.4 µM.

For `COc1c(-c2cc(O)c(O)c(O)c2)oc2cc(O)cc(OCCN3CCOCC3)c2c1=O`, the IC50 in [1] is > 100 µM; in the series on Liver microsome, 12 µM; in [2] it was 23.2 µM.

For the compound `COc1c(-c2ccc(O)c(O)c2)oc2cc(OCCN3CCCCC3)cc(O)c2c1=O.Cl`, the IC50 in [1] was 8.15 µM; in the series with Liver microsome it was 19.2 µM; in series [2] it was 20.7 µM. Also, the Activity with Rattus norvegicus [3] was 6.7%; with Rattus norvegicus [4], 30.1 mm3; in the series with Rattus norvegicus [5] it was 92.1 mm3; in the series on Rattus norvegicus [6], 93.6 mm3; with Rattus norvegicus [8], 128.9 mm3. For the same compound, the solubility in series [7] was > 50 mM.
